What is called pIC50 is −log10 of the IC50, conventionally taken in molar units.

pIC50: −log10 of the molar value.

Chain of PRMT5-MTA (O14744 whole entry): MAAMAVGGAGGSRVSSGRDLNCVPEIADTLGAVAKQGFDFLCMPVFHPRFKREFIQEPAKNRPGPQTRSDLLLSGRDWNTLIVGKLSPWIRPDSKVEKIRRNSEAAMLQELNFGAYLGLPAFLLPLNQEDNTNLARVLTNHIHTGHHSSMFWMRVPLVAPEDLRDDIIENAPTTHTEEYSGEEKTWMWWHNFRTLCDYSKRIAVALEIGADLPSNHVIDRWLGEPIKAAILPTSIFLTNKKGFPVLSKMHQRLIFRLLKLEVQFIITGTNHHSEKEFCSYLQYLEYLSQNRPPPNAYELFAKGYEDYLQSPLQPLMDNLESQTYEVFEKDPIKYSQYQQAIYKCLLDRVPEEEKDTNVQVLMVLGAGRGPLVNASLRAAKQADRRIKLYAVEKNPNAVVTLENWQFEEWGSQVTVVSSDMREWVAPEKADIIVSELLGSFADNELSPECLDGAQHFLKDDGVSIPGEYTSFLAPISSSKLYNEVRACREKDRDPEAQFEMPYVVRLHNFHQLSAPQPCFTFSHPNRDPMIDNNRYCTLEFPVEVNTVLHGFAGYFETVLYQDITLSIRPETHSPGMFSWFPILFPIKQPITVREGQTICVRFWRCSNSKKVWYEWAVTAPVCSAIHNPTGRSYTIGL
Chain of PRMT5-MTA (Q9BQA1 whole entry partner): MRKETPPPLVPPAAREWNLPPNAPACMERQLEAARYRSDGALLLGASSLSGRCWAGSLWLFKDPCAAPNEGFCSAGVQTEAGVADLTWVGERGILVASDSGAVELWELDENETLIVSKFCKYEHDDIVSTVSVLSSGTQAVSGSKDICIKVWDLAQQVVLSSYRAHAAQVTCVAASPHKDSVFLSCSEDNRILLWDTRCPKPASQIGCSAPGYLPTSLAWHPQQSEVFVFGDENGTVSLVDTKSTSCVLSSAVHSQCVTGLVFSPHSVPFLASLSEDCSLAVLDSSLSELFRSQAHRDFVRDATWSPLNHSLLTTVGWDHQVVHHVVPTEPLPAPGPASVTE

The first assay has as its target PRMT5-MTA (Homo sapiens, UniProt O14744). Kind of assay: Enzymatic inhibitory activity against PRMT5-MTA (AlphaScreen). The class given is biochemical.
Settings: not given
The procedure:
The AlphaScreen method was used to detect the enzymatic inhibitory activity of the compounds against PRMT5-MTA. 1 x Methyltransferase assay buffer IV (signalchem) was prepared as a solution for diluting each component for the enzymatic reaction. PRMT5/[…] protein of a final concentration of 1 nM, […] (sigma) of a final concentration of 1 uM and S-(5'-adenosine)-L-methionine chloride dihydrochloride (sigma) of a final concentration of 2.5 uM were mixed, then incubated for 30 minutes at room temperature, and transferred to an OptiPlate-384 well plate (PerkinElmer) at a volume of 6 uL per well, for which no PRMT5/[…] protein was added to the control wells. The test compound was 3-fold serially diluted into 10 concentrations, starting from a concentration of 1000 nM, and the series of diluted compounds were added to all wells except the control wells in the well plate using Tecan D300e. The well plate was subjected to centrifugation for 1 minute at 1000 rpm in a centrifuge, and then incubated for 15 minutes at 23°C. Histone H4 substrate of a final concentration of 5 nM was added to the well plate at 4 uL per well, centrifuged for 1 minute at 1000 rpm in a centrifuge, then placed in an incubator at 23°C and reacted for 45 minutes. Anti-histone H4 (symmetrical dimethyl R3) antibody (Abcam) was incubated with 50 ug/mL of AlphaScreen Protein A Acceptor beads (PerkinElmer) for 10 minutes at room temperature beforehand, and then added to the well plate at a volume of 10 uL per well. The mixture was reacted for 1 hour at room temperature. 50 Ug/mL of AlphaScreen Streptavidin Donor beads (PerkinElmer) was added at 10 uL per well, and reacted for 1 hour at room temperature. The signal values were detected for the well plate through the Alpha method using an Envision multifunctional microplate-reader, and the IC50 values for inhibition of the compounds on PRMT5/MET50 enzyme activity were calculated in Xlfit 5.0 software. Table 1. IC50 values for inhibition of the compounds on PRMT5+MTA enzyme activity
(In general: Bead proximity is the source of the signal in Alpha formats.)
In the case of `Cc1cc2nc(N)c3cnn(C)c3c2cc1C(=O)N(C)N1c2ccccc2CC1C` (stereo not drawn) [Example 280], the pIC50 was 8.40.

Still in this assay, the particulars now being: read-out: IC50.
As for `CN(C(=O)c1cc2c(cc1F)nc(N)c1cnn(C)c12)N(C)c1ncc(C(F)(F)F)cc1F` [Example 37, 4-amino-7-fluoro-N'-(3-fluoro-5-(trifluor omethyl)pyridin-2-yl)-N,N',1-trimethyl-1 H-pyrazolo[4,3-c]quinoline-8-carbohydrazide], the pIC50 is 8.46.

Consider `CN(c1ncccn1)N(Cc1ccc(C(F)(F)F)cn1)C(=O)c1ccc2nc(N)c3cnn(C)c3c2c1` [Example 11, 4-amino-N',1-dimethyl-N'-(pyrimidin-2-y 1)-N-((5-(trifluoromethyl)pyridin-2-yl)methyl)-1H-pyrazolo[4,3-c]quinoline-8-carb ohydrazide], for which the pIC50 was 9.00.

As for `Cc1cc2nc(N)c3cnn(C)c3c2cc1C(=O)N1CCCN1c1nccc2nccnc12` [Example 331, (4-amino-1,7-dimethyl-1H-pyrazolo[4,3-c]quinolin-8-yl)(2-(pyrido[3,4-b]pyrazin-5-yl)pyrazolidin-1-yl)methanone], the pIC50 was 8.68.

On to `CN(c1ncccn1)N(Cc1ccc(C(F)(F)F)cn1)C(=O)c1ccc2nc(N)cc(C3CC3)c2c1` [Example 29, 2-amino-4-cyclopropyl-N'-methyl-N'-(pyrimidin-2-yl)-N-((5-(trifluoromethyl)pyridin-2-yl)methyl)quinoline-6-carbohydrazide], for which the pIC50 was 8.80.

With `COCCN(c1ncccn1)N(Cc1ccc(C(F)(F)F)cn1)C(=O)c1ccc2nc(N)c(C)cc2c1` [Example 4, 2-amino-N'-(2-methoxyethyl)-3-methyl-N'-(pyrimidin-2-yl)-N-((5-(trifluoromethyl)pyridin-2-yl)methyl)quinoline-6-carbohydrazide], the pIC50 is 8.70.

Turning to `Cc1cc2cc(C(=O)N(Cc3ccc(C(F)(F)F)cn3)N(C)c3cccnn3)ccc2nc1N` [Example 79, 2-amino-N',3-dimethyl-N'-(pyridazin-3-yl)-N-((5-(trifluoromethyl)pyridin-2-yl)methyl)quinoline-6-carbohydrazide], the pIC50 is 8.01.

Regarding `CN(C(=O)c1cc2c(cc1F)nc(N)c1cnn(C)c12)N1CCc2cc(C(F)(F)F)cnc21` [Example 31, 4-amino-7-fluoro-N,1-dimethyl-N-(5-(trifluoromethyl)-2,3-dihydro-1H-pyrrolo[2,3-b]pyridin-1-yl)-1H-pyrazolo[4,3-c]quinoline-8-carboxamide], the pIC50 was 8.46.

Take `Cc1cc2nc(N)c3cnccc3c2cc1C(=O)N1CC(C)CN1c1ncccc1F` (stereo not drawn) [Example 506, (5-amino-8-methylbenzo[C] [2,7]naphthyridin-9-yl)(2-(3-fluoropyridin-2-yl)-4-methylpyrazolidin-1-yl)methanone]: the pIC50 is 8.24.

Take `Cc1cc2cc(C(=O)N(Cc3ccc(C(F)(F)F)cn3)n3cnc4cccnc43)ccc2nc1N` [Example 27, 2-amino-N-(3H-imidazo[4,5-b]pyridin-3-yl)-3-methyl-N-((5-(trifluoromethyl)pyridin-2-yl)methyl)quinoline-6-carboxamide]: the negative-log IC50 (pIC50) is 8.40.

Take `CCn1ncc2c(N)nc3cc(C)c(C(=O)N4CC(C)CN4c4ncccc4F)cc3c21` (stereo not drawn) [Example 503, (4-amino-1-ethyl-7-methyl-1H-pyrazolo[4,3-c]quinolin-8-yl)(2-(3-fluoropyridin-2-yl)-4-methylpyrazolidin-1-yl)methanone]: the pIC50 was 8.28.

Regarding `Cc1cc2cc(C(=O)N(Cc3ccc(C4(O)COC4)cn3)N(C)c3ncccn3)ccc2nc1N` [Example 285, 2-amino-N-((5-(3-hydroxyoxetan-3-yl)pyridin-2-yl)methyl)-N',3-dimethyl-N'-(pyrimidin-2-yl)quinoline-6-carbohydrazide], the pIC50 is 8.70.

`CC(C)c1cc2nc(N)c3cnn(C)c3c2cc1C(=O)N1CCCN1c1ccc(C(F)(F)F)cn1` [Example 500, (4-amino-7-isopropyl-1-methyl-1H-pyraz olo[4,3-c]quinolin-8-yl)(2-(5-(trifluoromethyl)pyridin-2-yl)pyrazolidin-1-yl)metha none]: the pIC50 was 7.39.

Consider `Cc1cc2nc(N)c3cnn(C)c3c2cc1C(=O)N1CC(C)CN1c1ncc(C#N)cc1F` (stereo not drawn) [Example 371, 6-(2-(4-amino-1,7-dimethyl-1H-pyrazolo [4,3-c]quinoline-8-formyl)-4-methylpyrazolidin-1-yl)-5-fluoronicotinonitrile], for which the negative-log IC50 (pIC50) was 8.26.

Turning to `Cc1cc2cc(C(=O)N(Cc3ccc(C(F)(F)F)cn3)n3c(=O)n(C)c4cccnc43)ccc2nc1N` [Example 118, 2-amino-3-methyl-N-(1-methyl-2-oxo-1,2-dihydro-3H-imidazo[4,5-b]pyridin-3-yl)-N-((5-(trifluoromethyl)pyridin-2-yl)methyl)quinoline-6-carboxamide], the pIC50 was 8.64.

Turning to `Cn1ncc2c(N)nc3ccc(C(=O)N4CCCN4c4ccc(C(F)(F)F)cn4)cc3c21` [Example 339, (4-amino-1-methyl-1H-pyrazolo[4,3-c]quinolin-8-yl)(2-(5-(trifluoromethyl)pyridin-2-yl)pyrazolidin-1-yl)methanone], the pIC50 is 8.34.

As to `Cn1ncc2c(N)nc3cc(C(F)(F)F)c(C(=O)N4CCCN4c4ccc(C(F)(F)F)cn4)cc3c21` [Example 505, (4-amino-1-methyl-7-trifluoromethyl-1H-pyrazolo[4,3-c]quinolin-8-yl)(2-(5-(trifluoromethyl)pyridin-2-yl)pyrazolidin-1-yl) methanone], the pIC50 was 8.52.

As for `Cc1cc2cc(C(=O)N(Cc3ccc(C(F)(F)F)cn3)N(C)c3nccc4cnn(C)c34)ccc2nc1N` [Example 275, 2-amino-N',3-dimethyl-N'-(1-methyl-1H-pyrazolo[3,4-c]pyridin-7-yl)-N-((5-(trifluoromethyl)pyridin-2-yl)methyl)quinoline-6-carbohydrazide], the pIC50 is 8.54.

As for `Cc1cc2cc(C(=O)N(Cc3ccc(C(F)(F)F)cn3)N(C)c3cc(C(F)(F)F)ccn3)ccc2nc1N` [Example 43, 2-amino-N',3-dimethyl-N'-(4-(trifluoromethyl)pyridin-2-yl)-N-((5-(trifluoromethyl)pyridin-2-yl)methyl)quinoline-6-carbohydrazide], the pIC50 is 8.42.

On to `CCN(C(=O)c1ccc2nc(N)c3c(c2c1)COC3)N(C)c1ccc(C(F)(F)F)cc1` [Example 115, 4-amino-N-ethyl-N-methyl-N-(4-(trifluoromethyl)phenyl)-1,3-dihydrofuro[3,4-c]quinoline-8-carbohydrazide], for which the pIC50 is 8.70.

In the case of `COc1cc2nc(N)c3cnn(C)c3c2cc1C(=O)N1CCCN1c1ncccc1F` [Example 498, (4-amino-7-methoxy-1-methyl-1H-pyraz olo[4,3-c]quinolin-8-yl)(2-(3-fluoropyridin-2-yl)pyrazolidin-1-yl)methanone], the pIC50 was 8.30.

With `CN(c1ncccn1)N(Cc1ccc(C(F)(F)F)cn1)C(=O)c1ccc2nc(N)c(C(F)(F)F)cc2c1` [Example 327, 2-amino-N'-methyl-N'-(pyrimidin-2-yl)-3-(trifluoromethyl)-N-((5-(trifluoromethyl)pyridin-2-yl)methyl)quinoline-6-carbohydrazide], the pIC50 was 8.08.

Turning to `Cc1cc2cc(C(=O)N(Cc3ccc(C(F)(F)F)cn3)N(C)c3ncc(S(C)(=O)=O)cn3)ccc2nc1N` [Example 96, 2-amino-N',3-dimethyl-N'-(5-(methylsulfonyl)pyrimidin-2-yl)-N-((5-(trifluoromethyl)pyridin-2-yl)methyl)quinoline-6-carbohydrazide], the pIC50 is 8.59.

Turning to `Cc1cc2nc(N)c3c(cnn3C)c2cc1C(=O)N1CC(C)CN1c1ncccc1F` (stereo not drawn) [Example 504, (4-amino-3,7-dimethyl-3H-pyrazolo[3,4-c]quinolin-8-yl)(2-(3-fluoropyridin-2-yl)-4-methylpyrazolidin-1-yl)methanone], the pIC50 was 8.07.

In the case of `Cc1ncsc1-c1ccc(CN(C(=O)c2ccc3nc(N)c4cnn(C)c4c3c2)N(c2ncccn2)C2CC2)nc1` [Example 252, 4-amino-N'-cyclopropyl-1-methyl-N-((5-(4-methylthiazol-5-yl)pyridin-2-yl)methyl)-N'-(pyrimidin-2-yl)-1H-pyrazolo[4,3-c] quinoline-8-carbohydrazide], the pIC50 is 8.32.

`Cc1cc2nc(N)c3cnn(C)c3c2cc1C(=O)N1CC(C)CN1c1ncccc1OC(F)(F)F` (stereo not drawn) [Example 334, (4-amino-1,7-dimethyl-1H-pyrazolo[4,3-c]quinolin-8-yl)(4-methyl-2-(3-(trifluoromethoxy)pyridin-2-yl)pyrazolidin-1-yl)m ethanone]: the pIC50 was 8.04.

`CN(c1ncccn1)N(Cc1ccc(C(F)(F)F)cn1)C(=O)c1cc2c(cc1F)nc(N)c1cnn(C)c12` [Example 14, 4-amino-7-fluoro-N',1-dimethyl-N'-(pyrimidin-2-yl)-N-((5-(trifluoromethyl)pyridin-2-yl)methyl)-1H-pyrazolo[4,3-c]quinoline-8-carbohydrazide]: the pIC50 is 8.70.

(Values after patent EP4745134A1 (Jiangsu Yahong Meditech Co., Ltd., priority 2023, dated 2025).)
